In brackets after ≈: the same amount, converted by molar mass.
Key:
[1] = human, microsomes
in vitro [2] = conditions: human, Caco-2
Description: Apparent permeability in human Caco-2 cells

[3] = Metabolic stability in mouse liver microsomes assessed as intrinsic clearance; type: ADME, Microsome
physchem [4] = conditions: buffer, pH 7.4
Description: Thermodynamic solubility of compound at pH 7.4

[5] = Dissociation constant, pKa of compound; type: physicochemical
in vivo = conditions: mouse, brain, 0.5 mg/kg
Description: Ratio of unbound drug concentration in brain to plasma of mouse at 0.5 mg/kg

physchem [6] = conditions: buffer, pH 7.4; remark: listed apart in the source
Description: Photostability of compound at pH 7.4 under ambient light assessed as compound remaining at 250 uM measured after 24 hrs by 2 LC-MS analysis

in vitro [7] = conditions: human, hepatocytes
Description: Metabolic stability in human hepatocytes assessed as intrinsic clearance measured per million cells

in vitro [8] = conditions: mouse, hepatocytes
Description: Metabolic stability in mouse hepatocytes assessed as intrinsic clearance measured per million cells

Structure (SMILES)	CLH [1]	Papp (in vitro [2])	CLH [3]	solubility thermodynamic (physchem [4])	pKa [5]	Kp uu (in vivo)	remaining at 24 h, 250 µM (physchem [6])	hepatocyte CLint (in vitro [7])	hepatocyte CLint (in vitro [8])
CN1C[C@H]2C[C@@H]1CN2c1nc2cnc(-c3cnc4cccnn34)cc2n(Cc2ccccc2)c1=O	83 mL/min/g	12.5 ×10⁻⁶ cm/s	58 mL/min/g	456 µM (≈ 212 µg/mL)	8.4	0.5	–	–	–
O=c1c(N2CC3CC(C2)N3)nc2cnc(-c3cnc4cccnn34)cc2n1Cc1ccccc1	22 mL/min/g	13.2 ×10⁻⁶ cm/s	10 mL/min/g	2 µM (≈ 0.901 µg/mL)	8.7	0.07	–	–	–
O=c1c(N2CCOCC2)nc2cnc(-c3cnc4cccnn34)cc2n1Cc1ccccc1	29 mL/min/g	–	52 mL/min/g	–	–	–	–	–	–
O=c1c(C(F)F)nc2cnc(-c3cnc4cccnn34)cc2n1Cc1ccccc1	4 mL/min/g	13.9 ×10⁻⁶ cm/s	11 mL/min/g	–	–	–	–	–	–
O=c1c(N2CCC2)nc2cnc(-c3cnc4cccnn34)cc2n1Cc1ccccc1	63 mL/min/g	–	226 mL/min/g	–	–	–	–	–	–
CN1CCN(c2nc3cnc(-c4cnc5cccnn45)cc3n(Cc3ccccc3)c2=O)CC1	73 mL/min/g	23.6 ×10⁻⁶ cm/s	227 mL/min/g	< 1 µM	7.6	–	–	–	–
CC1Oc2ccc(-c3cnc4ccccn34)nc2N(Cc2ccccc2)C1=O (stereo not drawn)	–	–	–	–	–	–	39%	–	–
C[C@H](c1ccccc1)n1c(=O)c(N2CC3CC(C2)N3)nc2cnc(-c3cnc4cccnn34)cc21	21 mL/min/g	8.3 ×10⁻⁶ cm/s	–	356 µM (≈ 165 µg/mL)	–	0.026	–	9 µL/min/1e6 cells	6 µL/min/1e6 cells
O=c1c(N2C[C@H]3C[C@@H]2CN3)nc2cnc(-c3cnc4cccnn34)cc2n1Cc1ccccc1	16 mL/min/g	8.6 ×10⁻⁶ cm/s	3 mL/min/g	–	8.8	–	–	–	–
O=c1cnc2cnc(-c3cnc4cccnn34)cc2n1Cc1ccccc1	34 mL/min/g	24.4 ×10⁻⁶ cm/s	–	–	–	–	> 97%	–	–
O=c1c(N2CCNCC2)nc2cnc(-c3cnc4cccnn34)cc2n1Cc1ccccc1	42 mL/min/g	10.7 ×10⁻⁶ cm/s	32 mL/min/g	< 1 µM	8.5	–	–	–	–

From ChEMBL document CHEMBL6074673, “Discovery of UCB9386: A Potent, Selective, and Brain-Penetrant Nuak1 Inhibitor Suitable for In Vivo Pharmacological Studies” (J Med Chem, 2024)
